Entries after “also recorded” stand apart in the source; their conditions may differ. Where no end group is shown, it is not given here.
Tests used:
GST-Cldn4.Ecl2 (R4) = GST-Cldn4.Ecl2 (R4) (Mus musculus, UniProt O35054); assay type: binding; conditions: for Kd: read-out: calculated equilibrium affinity (KD)
Cldn-4 Mutant R4 [1] = biological target: T1, Cldn-4 Mutant R4 (Mus musculus, UniProt O35054); assay: Kd (1/s)
T1 construct: made in house; host or cells: E. coli BL21 (pLysS)
Experimental: (§1) Table printed on a drawing sheet, FIGURE 3
(§2) Title: Binding Kinetics of Various Peptides to Cldn-4 Mutant R4
Head of the field: Kd (1/s)
(§3) The processed specific binding sensorgrams are presented for each ligand. The 50 nM analyte concentration was repeated twice to confirm reproducibility. The binding kinetics was analyzed by “BIAevalution 3.1” software with 1:1 (langmuir) binding mode, and the binding constants were summarized in the table.
(§4) First copying reader's note: Panel B of FIGURE 3; panel A is a sensorgram plot and is left out.
(§5) Where the first naming reader finds the target: table_title: Binding Kinetics of Various Peptides to Cldn-4 Mutant R4

Cldn-4 Mutant R4 [2] = biological target: T1, Cldn-4 Mutant R4; assay: KD (nM)
Experimental: as §1, §2
Head of the field: KD (nM)
as §3, §4, §5

[3] = biological target: Claudin-4 Ecl2 domain (synthetic biotinylated peptide) (Mus musculus, UniProt O35054); assay type: binding
GST protein = GST protein (Schistosoma japonicum, UniProt P08515); assay type: binding
GST protein, sequence (P08515 whole entry, looked up): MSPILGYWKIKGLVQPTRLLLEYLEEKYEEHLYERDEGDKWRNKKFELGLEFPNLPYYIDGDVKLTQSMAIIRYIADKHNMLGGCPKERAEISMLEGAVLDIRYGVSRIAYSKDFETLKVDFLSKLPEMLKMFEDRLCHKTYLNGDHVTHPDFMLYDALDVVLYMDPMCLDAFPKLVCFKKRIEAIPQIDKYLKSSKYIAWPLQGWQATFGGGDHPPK

Cldn-4 Mutant R4 [4] = biological target: T1, Cldn-4 Mutant R4

T1 sequence (O35054 117-181, change not shown): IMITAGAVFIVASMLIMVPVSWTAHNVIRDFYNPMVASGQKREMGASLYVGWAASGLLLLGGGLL

Sequence: APWTEHSYYLSL [CC4P-13R]
- off-rate (GST-Cldn4.Ecl2 (R4)): slowest off-rate

Sequence: APWTEHSYYLSL [CC4P-13] [listing 1 of 2 here]
- Kd (Cldn-4 Mutant R4 [1]): 0.000742 s⁻¹

Sequence: APWTEHSYYLSL [CC4P-13] [listing 2 of 2 here]
- KD (stated in words) (GST-Cldn4.Ecl2 (R4)): nanomolar level
- specific binding to Cldn4 Ecl2 (GST-Cldn4.R4) (GST-Cldn4.Ecl2 (R4)): clear specific binding; also recorded: orientation of biotinylation did not affect the binding; also recorded: significant affinity

Sequence: ASNSSYSGNYSIL [Cpe30 MT3]
- specific binding to Cldn4 Ecl2 (GST-Cldn4.R4) (GST-Cldn4.Ecl2 (R4)): did not bind

Sequence: NSSYSGNYPYSILFQKF [Cpe17, NSSYSGNYPYSILFQKF]
- off-rate (GST-Cldn4.Ecl2 (R4)): slightly slower off-rate
- on-rate (GST-Cldn4.Ecl2 (R4)): similar
- specific binding to Cldn4 Ecl2 (GST-Cldn4.R4) (GST-Cldn4.Ecl2 (R4)): strong specific binding
- Kd (GST-Cldn4.Ecl2 (R4)): 1.57 nM
- Kd (Cldn-4 Mutant R4 [2]): 2.12 nM

Sequence: SLDAGQYVLVMKANSSYSGNYPYSILFQKF [Cpe30] [listing 1 of 2 here]
- on-rate (GST-Cldn4.Ecl2 (R4)): similar
- specific binding to Cldn4 Ecl2 (GST-Cldn4.R4) (GST-Cldn4.Ecl2 (R4)): optimal binding activity; also recorded: strong specific binding
- Kd (GST-Cldn4.Ecl2 (R4)): 2.56 nM
- binding to lariat Ecl2 (cyclic, disulfide bond) [3]: failed to bind
- binding to linear B-Ecl2 peptide [3]: No specific binding
- binding to tethered Ecl2 (B-Ecl2-B, biotin at both termini) [3]: failed to bind
- binding to GST protein only (GST protein): did not bind

Sequence: SLDAGQYVLVMKANSSYSGNYPYSILFQKF [Cpe30] [listing 2 of 2 here]
- Ka (Cldn-4 Mutant R4 [4]): 130000 M⁻¹ s⁻¹

Sequence: SPWSEPAYTLAP [CC4P-5] [listing 1 of 2 here]
- Ka (Cldn-4 Mutant R4 [4]): 315000 M⁻¹ s⁻¹
- Kd (Cldn-4 Mutant R4 [1]): 0.00141 s⁻¹

Sequence: SPWSEPAYTLAP [CC4P-5] [listing 2 of 2 here]
- KD (stated in words) (GST-Cldn4.Ecl2 (R4)): nanomolar level
- specific binding to Cldn4 Ecl2 (GST-Cldn4.R4) (GST-Cldn4.Ecl2 (R4)): clear specific binding; also recorded: significant affinity

Sequence: SSYSGNYPYSIL [Cpe30 MT1]
- specific binding to Cldn4 Ecl2 (GST-Cldn4.R4) (GST-Cldn4.Ecl2 (R4)): no specific binding; also recorded: did not bind

Sequence: VTHKTCPPACWP [CC4P-2]
- specific binding to Cldn4 Ecl2 (GST-Cldn4.R4) (GST-Cldn4.Ecl2 (R4)): no specific binding
